Test results from US8371376B2, “Method for pre-treatment of subterranean sites adjacent to water injection wells” (E. I. du Pont de Nemours and Company, priority 2010, dated 2013).

Test: Titration of sand/amine/brine mixture with 1N HCl, amine concentration by GC
Type: physicochemical
Conditions: initial pH 8.4, before HCl addition; 380 ppm expected if all dissolved
Procedure: Helium was used as the carrier gas.
38 milligrams (mg) of N N-Dimethyl-1-Dodecanamine (hereafter referred to as “the amine”) was added to 10.210 gr of Pentane. This solution was added to 10.1845 gr of specific sand layers (Oa and Ob) obtained from the Schrader Bluff formation of the Milne Point Unit of the Alaskan North slope. The oil content of the sand was first removed using a mixture of methanol and toluene (50/50, volume/volume) as solvent washes. The solvent mixture was subsequently evaporated off the core sand to produce clean, dry, flowable core sand. This sand was mixed with the amine and pentane solution to produce a slurry. This slurry was thoroughly mixed and the pentane was evaporated off leaving the amine on the sand (hereafter referred to as sand/amine mixture). 100 ml of brine #2 (Table 3) was added to the sand/amine mixture to create the sand/amine/brine mixture. […] The fact that the amine was not detected underlined its strong binding to the sand particles. […] The data underlines the remarkable efficiency of an acid at ionizing and removing the amine from the sand.

CCCCCCCCCCCCN(C)C [N-N-dimethyl-1-dodeanamine, N N-Dimethyl-1-Dodecanamine]
amine conc. in sand/amine/brine mixture: < 1 ppm
